Test results: patent US20110218218A1, “Formulations Of Indanylamines And The Use Thereof As Local Anesthetics And As Medication For Chronic Pain” (BRIDGE PHARMA, INC., priority 2005, published 2011)
In brackets after ≈: the same amount, converted by molar mass.

Experiments:
[1] = Screening of excipients for their capability to dissolve LAC-34 free base at room temperature; type: physicochemical; settings: 22 °C, thermodynamic from solid
Method: (§1) HPLC analytical methodology was developed, using LAC-34 free base at room temperature (21-23° C.). A liquid's ability to dissolve LAC-34 was screened by adding a known mass of LAC-34 to a known volume/mass of liquid. Saturation solubility was measured by adding an excess of drug substance and allowing the suspension to equilibrate while stirring for 2-3 days. Four solutions of different concentrations of LAC-34 (8.1 mcg/mL to 0.98 mg/mL) plus a blank were typically tested in triplicate. Excellent linearity of the recovery was obtained over […] in LAC-34 concentrations and the relative standard deviations of peak areas for all LAC-34 solutions were less than 0.5%.
Various excipients were tested for their capability to dissolve LAC-34, free base.

[2] = Physical state of LAC-34 in solvents when tested at 4° C.; type: physicochemical
Method: When tested at 4° C., 20% LAC-34 in benzyl alcohol was a solution, 5% LAC-34 in propylene glycol was a gel, 5% LAC-34 in isopropyl myristate was a suspension, 5% LAC-34 in isopropyl palmitate was a solid, 5% LAC-34 in isopropyl alcohol was a suspension and cetyl alcohol was a solid (melting point=49.3° C.)

[3] = Saturation solubility of LAC-34 free base in selected solvents (HPLC); type: physicochemical; settings: 22 °C, thermodynamic from solid
Method: as §1
The saturation solubility of LAC-34 was measured in capric/caprylic triglycerides (CCT), dimethylsulfoxide (DMSO), ethanol, isopropanol, isopropyl myristate (IPM), pentane, propylene glycol (PG), and water. CCT and IPM were selected for further work since they can function as emollients and oily vehicles in creams. DMSO is a solvent and a penetration enhancer. Ethanol and isopropanol are volatile solvents and rapid evaporation of a solvent like ethanol and isopropyl alcohol may be important for minimizing therapeutic onset time. Propylene glycol has multiple functions in dermal formulations, the most important of which are solubilization and penetration enhancement.
The analytical HPLC method described in Example 1 was used.
All of the solvents, with the exception of water, were able to dissolve large quantities of LAC-34. LAC-34, as the free base, was very soluble also in DMSO. Both IPM and CCT, which are semi-polar emollient oils, had also high solubilization capacity for LAC-34. Propylene glycol (PG), which has multiple actions for dermal drug delivery (see Table 1), was also able to solubilize significant quantities of LAC-34. […] After observing this phenomenon with ethanol, 0.125 g of isopropanol was added to 0.25 g of LAC-34. […] This was approximately 526 mg/mL.

[4] = Solubility of LAC-34 in binary mixtures of solvent and water (anti-solvent); type: physicochemical
Method: Due to the very high solubility of LAC-34 free base in numerous volatile solvents, it was determined to be necessary to find and add an anti-solvent in order to reach saturation of the solutions of LAC-34. The efficacy of water is an anti-solvent for LAC-34 free base was investigated in the present studies.

[5] = Ternary solubility studies: PG/ethanol solutions titrated with water until cloudy; type: physicochemical
Method: Therefore, several solutions were made where PG would be saturated or almost saturated with LAC-34 (i.e., […]). A quantity of ethanol was added to act at the volatile solvent. Each solution was titrated with water until it became cloudy. As with other titrations with water, the LAC-34 appeared to come out of solution as a liquid (oil) rather than a solid.

[6] = test system: batrachotoxin-sensitive Na+ channel (site 2); test: [3H]batrachotoxin binding to Na+ channels (site 2); design: species or system rat
human NaV1.3 channels = biological target: T1, human NaV1.3 channels (Homo sapiens, UniProt Q9NY46); test: NaV1.3 electrophysiology (patch clamp) in HEK-293 cells; type: cell-based
T1 construct: expressed in transfected cells; host or cells: HEK-293
T1 sequence (Q9NY46 whole entry): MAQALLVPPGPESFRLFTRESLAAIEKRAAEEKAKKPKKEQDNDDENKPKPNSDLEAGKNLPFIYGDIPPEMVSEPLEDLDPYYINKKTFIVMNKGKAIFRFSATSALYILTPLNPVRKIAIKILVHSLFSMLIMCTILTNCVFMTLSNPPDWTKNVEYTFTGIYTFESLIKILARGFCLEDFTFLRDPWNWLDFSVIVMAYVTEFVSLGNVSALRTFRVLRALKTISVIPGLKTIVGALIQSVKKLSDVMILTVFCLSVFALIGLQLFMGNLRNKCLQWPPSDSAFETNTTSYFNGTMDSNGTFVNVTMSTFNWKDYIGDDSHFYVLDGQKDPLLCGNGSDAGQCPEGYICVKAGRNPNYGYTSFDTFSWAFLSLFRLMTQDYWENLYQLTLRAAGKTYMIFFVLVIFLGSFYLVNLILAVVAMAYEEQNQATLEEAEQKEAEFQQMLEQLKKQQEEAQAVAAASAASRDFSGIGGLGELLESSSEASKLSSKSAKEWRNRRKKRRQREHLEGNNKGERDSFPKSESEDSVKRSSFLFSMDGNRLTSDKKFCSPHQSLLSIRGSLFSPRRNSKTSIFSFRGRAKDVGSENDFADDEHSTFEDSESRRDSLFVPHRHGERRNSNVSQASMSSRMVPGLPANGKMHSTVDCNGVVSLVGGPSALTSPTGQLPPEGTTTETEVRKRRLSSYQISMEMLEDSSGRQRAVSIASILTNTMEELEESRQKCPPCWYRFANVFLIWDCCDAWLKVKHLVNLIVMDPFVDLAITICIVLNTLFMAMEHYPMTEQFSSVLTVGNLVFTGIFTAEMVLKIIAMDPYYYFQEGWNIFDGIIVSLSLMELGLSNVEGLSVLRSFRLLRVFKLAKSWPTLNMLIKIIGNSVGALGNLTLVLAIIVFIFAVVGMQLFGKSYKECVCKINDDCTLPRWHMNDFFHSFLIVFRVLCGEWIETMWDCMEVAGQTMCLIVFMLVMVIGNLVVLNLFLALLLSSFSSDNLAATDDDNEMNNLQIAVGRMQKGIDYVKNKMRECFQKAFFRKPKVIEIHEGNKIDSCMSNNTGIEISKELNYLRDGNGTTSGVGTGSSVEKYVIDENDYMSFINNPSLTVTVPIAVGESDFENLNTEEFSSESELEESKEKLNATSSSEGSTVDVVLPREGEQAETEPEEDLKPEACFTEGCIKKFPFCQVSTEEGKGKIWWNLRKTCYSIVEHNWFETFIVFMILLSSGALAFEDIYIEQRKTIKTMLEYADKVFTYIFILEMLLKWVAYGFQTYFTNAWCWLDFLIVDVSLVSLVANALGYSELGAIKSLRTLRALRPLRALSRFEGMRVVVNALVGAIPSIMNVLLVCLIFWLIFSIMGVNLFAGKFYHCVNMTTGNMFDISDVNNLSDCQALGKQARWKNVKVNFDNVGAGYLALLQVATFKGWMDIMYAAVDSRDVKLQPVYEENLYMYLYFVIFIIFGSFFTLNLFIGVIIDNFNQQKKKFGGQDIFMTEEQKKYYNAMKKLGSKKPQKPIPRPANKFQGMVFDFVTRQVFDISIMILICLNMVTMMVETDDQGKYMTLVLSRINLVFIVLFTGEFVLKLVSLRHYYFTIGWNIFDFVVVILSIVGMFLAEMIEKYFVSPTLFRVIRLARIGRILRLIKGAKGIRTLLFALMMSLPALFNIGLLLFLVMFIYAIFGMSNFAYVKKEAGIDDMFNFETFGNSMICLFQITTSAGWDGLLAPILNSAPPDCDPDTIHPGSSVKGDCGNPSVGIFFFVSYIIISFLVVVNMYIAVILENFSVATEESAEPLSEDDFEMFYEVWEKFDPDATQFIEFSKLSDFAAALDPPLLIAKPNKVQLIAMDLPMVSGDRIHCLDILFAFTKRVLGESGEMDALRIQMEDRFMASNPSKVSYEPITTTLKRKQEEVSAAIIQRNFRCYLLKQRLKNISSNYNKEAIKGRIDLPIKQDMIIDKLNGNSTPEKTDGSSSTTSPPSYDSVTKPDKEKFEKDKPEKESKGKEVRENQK

human NaV1.5 channels = biological target: T2, human NaV1.5 channels (Homo sapiens, UniProt Q14524); test: NaV1.5 electrophysiology (patch clamp) in HEK-293 cells; type: cell-based
T2 construct: expressed in transfected cells; host or cells: HEK-293
T2 sequence (Q14524 whole entry): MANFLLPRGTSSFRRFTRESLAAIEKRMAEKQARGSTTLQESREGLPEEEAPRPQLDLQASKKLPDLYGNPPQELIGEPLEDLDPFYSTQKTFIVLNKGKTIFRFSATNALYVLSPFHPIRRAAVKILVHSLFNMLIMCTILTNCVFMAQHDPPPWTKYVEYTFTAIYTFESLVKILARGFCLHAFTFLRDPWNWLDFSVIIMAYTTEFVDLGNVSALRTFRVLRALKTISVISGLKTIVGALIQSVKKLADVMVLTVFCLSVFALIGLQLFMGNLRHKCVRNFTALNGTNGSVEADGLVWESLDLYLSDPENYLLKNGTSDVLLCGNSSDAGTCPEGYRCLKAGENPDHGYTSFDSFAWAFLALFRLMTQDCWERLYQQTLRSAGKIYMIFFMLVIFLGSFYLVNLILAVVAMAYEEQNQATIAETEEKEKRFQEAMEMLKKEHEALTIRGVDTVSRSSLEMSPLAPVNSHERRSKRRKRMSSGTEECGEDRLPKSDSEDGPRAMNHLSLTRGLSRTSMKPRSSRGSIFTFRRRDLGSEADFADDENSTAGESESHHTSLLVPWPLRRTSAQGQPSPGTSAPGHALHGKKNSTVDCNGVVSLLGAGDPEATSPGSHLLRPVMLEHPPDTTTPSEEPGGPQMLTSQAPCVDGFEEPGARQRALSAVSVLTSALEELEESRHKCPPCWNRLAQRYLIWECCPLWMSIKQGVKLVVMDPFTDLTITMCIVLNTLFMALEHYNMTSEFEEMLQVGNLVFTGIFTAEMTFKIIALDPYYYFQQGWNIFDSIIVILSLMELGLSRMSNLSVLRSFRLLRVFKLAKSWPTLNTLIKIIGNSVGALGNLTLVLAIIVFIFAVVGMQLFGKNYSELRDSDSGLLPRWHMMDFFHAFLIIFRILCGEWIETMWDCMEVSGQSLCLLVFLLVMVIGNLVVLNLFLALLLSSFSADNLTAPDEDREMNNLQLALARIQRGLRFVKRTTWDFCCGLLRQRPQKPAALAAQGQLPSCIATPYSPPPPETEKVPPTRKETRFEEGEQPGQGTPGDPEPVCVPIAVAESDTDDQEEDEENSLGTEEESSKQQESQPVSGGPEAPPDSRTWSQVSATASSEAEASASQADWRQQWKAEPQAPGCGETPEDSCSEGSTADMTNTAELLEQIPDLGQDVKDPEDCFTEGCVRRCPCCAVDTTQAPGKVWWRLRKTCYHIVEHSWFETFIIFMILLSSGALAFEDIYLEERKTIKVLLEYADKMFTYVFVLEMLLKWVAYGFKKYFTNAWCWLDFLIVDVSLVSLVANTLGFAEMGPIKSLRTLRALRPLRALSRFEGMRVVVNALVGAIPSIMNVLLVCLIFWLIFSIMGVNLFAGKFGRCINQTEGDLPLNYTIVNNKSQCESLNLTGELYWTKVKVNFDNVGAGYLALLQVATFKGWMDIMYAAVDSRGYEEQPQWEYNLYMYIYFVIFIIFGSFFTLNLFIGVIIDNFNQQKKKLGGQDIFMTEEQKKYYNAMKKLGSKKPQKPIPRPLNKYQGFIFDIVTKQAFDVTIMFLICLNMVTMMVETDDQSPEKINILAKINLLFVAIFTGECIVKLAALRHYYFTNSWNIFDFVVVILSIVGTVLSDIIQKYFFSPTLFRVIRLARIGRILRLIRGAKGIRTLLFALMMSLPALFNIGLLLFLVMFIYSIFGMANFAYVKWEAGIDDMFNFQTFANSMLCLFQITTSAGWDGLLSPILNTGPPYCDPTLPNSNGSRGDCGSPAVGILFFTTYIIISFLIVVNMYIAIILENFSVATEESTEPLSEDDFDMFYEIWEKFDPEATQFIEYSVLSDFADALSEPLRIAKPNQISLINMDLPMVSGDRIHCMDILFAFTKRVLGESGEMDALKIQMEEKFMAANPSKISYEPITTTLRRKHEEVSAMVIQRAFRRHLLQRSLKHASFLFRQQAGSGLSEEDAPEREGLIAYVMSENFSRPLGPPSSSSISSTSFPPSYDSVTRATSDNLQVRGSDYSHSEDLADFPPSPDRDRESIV

guinea pigs = test: Dermal anesthesia after dermal application, pinprick method; type: in vivo, guinea pig; settings: for Average Anesthetic Score: 2.0 ml of 5.0% solution in DMSO/water, 30 min occluded, maximal score 6
Method: The purpose of this study was to determine the efficacy of the free base and pharmaceutically acceptable salt forms of LAC-34 as dermal anesthetics, following dermal application of the compounds to guinea pigs. The Duration of Anesthesia is directly related to the Dermal Residence Times of the test articles.
Four groups of six male guinea pigs received a dose of 2.0 ml of a 5.0% solution of four test articles (LAC-34 base, LAC-34 mono-HCl salt, LAC-34 di-HCl salt and LAC-34 mesylate salt) that had been applied onto a two-inch square, 4-layer thick gauze pad on depilated dorsal skin of each guinea pig. Similarly, one group of guinea pigs received the vehicle, which consisted of DMSO/water and served as the control group. The gauze was occluded and the guinea pigs were wrapped for 30 min. Animals were assessed for initial pain reaction (anesthetic depth) at 15-minute intervals up to 3 hours and at 24 hours. An algesimeter, set at 10 g, was employed to assess the onset and depth of anesthesia using the pinprick method causing a twitch response or non-response. The “Average Anesthetic Score” was defined as number of probings not producing a dermal twitch response. Thus, a situation where there were no dermal twitch responses to six probings represent a maximal anesthetic effect and is denoted as an Average Anesthetic Score of 6. Duration of Anesthesia was in this study defined as the time from patch removal until the test scores have regressed to an average anesthetic score below 2.0. The Duration of Anesthesia in this type of experiments is directly related the duration of Dermal Residency for the test articles.

[7] = Water solubility (spectrophotometric, HPLC); type: physicochemical; settings: LAC-34 as free base
Method: (§2) Water solubility and dissociation constants were determined for the free base of LAC-34 using standard spectrophotometric, HPLC and potentiometric methods.

[8] = Dissociation constant (pKa), potentiometric; type: physicochemical; settings: LAC-34 as free base
Method: as §2

For `c1ccc(N(CCC2CCCCN2)C2Cc3ccccc3C2)cc1` (racemic) [LAC-34, 2-[2-(N-Phenyl-N-2-indanyl)aminoethyl]piperidine], the solubility ([1]; oil or lipid, in isopropyl myristate) was > 78 mg/mL, the solubility ([1]; oil or lipid, in isopropyl palmitate) was 50 to 100 mg/mL (≈ 156 to 312 mM) and the solubility ([1]; oil or lipid, in mineral oil) was < 50 mg/mL. For the same compound, the solubility ([1]; organic solvent or mixture, in benzyl alcohol) was > 100 mg/mL, the solubility ([1]; organic solvent or mixture, in dibutyl adipate) was > 79 mg/mL and the solubility ([1]; organic solvent or mixture, in ethanol) was > 86 mg/mL. For the same compound, the solubility ([1]; organic solvent or mixture, in hexylene glycol) was > 75 mg/mL, the solubility ([1]; organic solvent or mixture, in isopropyl alcohol) was > 79 mg/mL and the solubility ([1]; organic solvent or mixture, in propylene carbonate) was > 78 mg/mL. For the same compound, the solubility ([1]; organic solvent or mixture, in propylene glycol) was > 76 mg/mL, the “Physical state at 4° C.” value ([2]; 5% LAC-34 in isopropyl alcohol) was “suspension” and the “Physical state at 4° C.” value ([2]; 5% LAC-34 in isopropyl myristate) was “suspension”. The “Physical state at 4° C.” value ([2]; 5% LAC-34 in isopropyl palmitate) was “solid”, the “Physical state at 4° C.” value ([2]; 5% LAC-34 in propylene glycol) was “gel” and the “Physical state at 4° C.” value ([2]; 20% LAC-34 in benzyl alcohol) was “solution”. For the same compound, the solubility ([3]; capric/caprylic triglycerides (CCT), oil or lipid, in capric/caprylic triglycerides (CCT)) was 195 mg/mL (≈ 608 mM), the solubility ([3]; dimethylsulfoxide (DMSO), organic solvent or mixture, in dimethylsulfoxide (DMSO)) was 215 mg/mL (≈ 671 mM) and the solubility ([3]; ethanol, organic solvent or mixture, in ethanol (never saturated)) was > 2000 mg/mL. The solubility ([3]; isopropyl myristate (IPM), oil or lipid, in isopropyl myristate (IPM)) was 184 mg/mL (≈ 574 mM), the solubility ([3]; pentane, organic solvent or mixture, in pentane, value uncertain, pentane evaporates rapidly) was 150 mg/mL (≈ 468 mM) and the solubility ([3]; propylene glycol (PG), organic solvent or mixture, in propylene glycol (PG)) was 149 mg/mL (≈ 465 mM). For the same compound, the solubility ([3]; water, in water) was 0.005 mg/mL (≈ 0.0156 mM), the solubility ([4]; DMSO with 5% water, organic solvent or mixture, DMSO, 5% water, previous tests) was ≥ 100 mg/mL and the solubility ([4]; DMSO with 50% water, aqueous with cosolvent or surfactant or cyclodextrin, DMSO, 50% water, read-out: Solubility of LAC-34 in mixture of solvent and water) was 1.7 mg/mL (≈ 5.3 mM). The solubility ([4]; DMSO with 90% water, aqueous with cosolvent or surfactant or cyclodextrin, DMSO, 90% water, read-out: Solubility of LAC-34 in mixture of solvent and water) was 0.45 mg/mL (≈ 1.4 mM), the solubility ([4]; DMSO, 0% water, organic solvent or mixture) was 215 mg/mL (≈ 671 mM) and the solubility ([4]; ethanol with 15% water, organic solvent or mixture, kinetic from dmso stock, ethanol, 15% water, titrated from an ethanol/LAC-34 solution with water) was 63 mg/mL (≈ 197 mM). The solubility ([4]; ethanol with 20% water, organic solvent or mixture, kinetic from dmso stock, ethanol, 20% water, titrated from an ethanol/LAC-34 solution with water) was 33 mg/mL (≈ 103 mM), the solubility ([4]; ethanol with 30% water, organic solvent or mixture, kinetic from dmso stock, ethanol, 30% water, titrated from an ethanol/LAC-34 solution with water) was 7 mg/mL (≈ 21.8 mM) and the solubility ([4]; ethanol, 0% water, organic solvent or mixture) was > 2000 mg/mL. For the same compound, the solubility ([4]; propylene glycol with 1% water, organic solvent or mixture, PG, 1% water) was 139 mg/mL (≈ 434 mM), the solubility ([4]; propylene glycol with 2.5% water, organic solvent or mixture, PG, 2.5% water) was 104 mg/mL (≈ 325 mM) and the solubility ([4]; propylene glycol with 5% water, organic solvent or mixture, PG, 5% water) was 63 mg/mL (≈ 197 mM). For the same compound, the solubility ([4]; propylene glycol with 10% water, organic solvent or mixture, PG, 10% water) was 29 mg/mL (≈ 90.5 mM), the solubility ([4]; propylene glycol with 20% water, organic solvent or mixture, PG, 20% water) was 8.7 mg/mL (≈ 27.1 mM) and the solubility ([4]; propylene glycol with 50% water, aqueous with cosolvent or surfactant or cyclodextrin, PG, 50% water, read-out: Solubility of LAC-34 in mixture of solvent and water) was 0.37 mg/mL (≈ 1.15 mM). For the same compound, the solubility ([4]; propylene glycol with 75% water, aqueous with cosolvent or surfactant or cyclodextrin, PG, 75% water, read-out: Solubility of LAC-34 in mixture of solvent and water) was 0.075 mg/mL (≈ 0.234 mM), the solubility ([4]; propylene glycol, organic solvent or mixture, PG, 0% water) was 149 mg/mL (≈ 465 mM) and the “Saturation Concentration of LAC-34” value ([5]; 0.150 g LAC-34, 1.0 g PG, 0.5 g ethanol, 0.317 g water titrated) was 7.6 % w/w. For the same compound, the “Saturation Concentration of LAC-34” value ([5]; 0.150 g LAC-34, 1.0 g PG, 1.0 g ethanol, 0.601 g water titrated) was 5.4 % w/w, the “Saturation Concentration of LAC-34” value ([5]; 0.200 g LAC-34, 1.0 g PG, 3.0 g ethanol, 1.880 g water titrated) was 3.3 % w/w and the “Potency relative to lidocaine, batrachotoxin-sensitive Na-channels” value ([6]; calculated from IC50 values) was “approximately 210 times”. The IC50 ([6]; rat cerebral cortex, 10 nM ligand, 60 min/22° C., read-out: IC50, inhibition of [3H]batrachotoxin specific binding) was 247 nM, the IC50 (human NaV1.3 channels; HEK-293 cells, patch clamp) was 4000 nM and the “Potency relative to lidocaine, NaV1.3 channels” value (human NaV1.3 channels; calculated) was “more than 200 times”. The IC50 (human NaV1.5 channels) was 600 nM, the “Potency relative to lidocaine, NaV1.5 channels” value (human NaV1.5 channels; calculated) was “about 500 times” and the “Average Anesthetic Score” value (guinea pigs; 15 min after patch removal) was 4.8. The “Average Anesthetic Score” value (guinea pigs; 30 min after patch removal) was 4.8, the “Average Anesthetic Score” value (guinea pigs; 60 min after patch removal) was 4.4 and the “Average Anesthetic Score” value (guinea pigs; 90 min after patch removal) was 3.3. For the same compound, the “Average Anesthetic Score” value (guinea pigs; 180 min after patch removal) was 2.2, the “Maximal Depth of Anesthesia” value (guinea pigs; highest Average Anesthetic Score after patch removal, 5.0% solution) was 4.8 and the “Duration of Anesthesia” value (guinea pigs; time from patch removal until average anesthetic score below 2.0, 5.0% solution) was 180 min. It also gave a solubility [7] of 0.005 mg/mL (≈ 0.0156 mM) and a pKa [8] of 8.09 ± 0.23.

For `CCN(CC)CC(=O)Nc1c(C)cccc1C` [Lidocaine, reference compound], the inhibition at 2000 µM (human NaV1.3 channels; HEK293, read-out: inhibition of NaV1.3 channels) was 70%.

`CCCCNc1ccc(C(=O)OCCN(C)C)cc1` [Tetracaine, reference compound] showed a solubility [7] of 0.356 mg/mL (≈ 1.35 mM) and a pKa [8] of 8.51 ± 0.12.
